Molecules are shown by their SMILES.

The assay deals with T1, BA/F3-FLT3-ITD + F691L cells (Homo sapiens, UniProt P36888, F691L, cells depend on it, form not given).
T1 sequence (P36888 1-993 F691L): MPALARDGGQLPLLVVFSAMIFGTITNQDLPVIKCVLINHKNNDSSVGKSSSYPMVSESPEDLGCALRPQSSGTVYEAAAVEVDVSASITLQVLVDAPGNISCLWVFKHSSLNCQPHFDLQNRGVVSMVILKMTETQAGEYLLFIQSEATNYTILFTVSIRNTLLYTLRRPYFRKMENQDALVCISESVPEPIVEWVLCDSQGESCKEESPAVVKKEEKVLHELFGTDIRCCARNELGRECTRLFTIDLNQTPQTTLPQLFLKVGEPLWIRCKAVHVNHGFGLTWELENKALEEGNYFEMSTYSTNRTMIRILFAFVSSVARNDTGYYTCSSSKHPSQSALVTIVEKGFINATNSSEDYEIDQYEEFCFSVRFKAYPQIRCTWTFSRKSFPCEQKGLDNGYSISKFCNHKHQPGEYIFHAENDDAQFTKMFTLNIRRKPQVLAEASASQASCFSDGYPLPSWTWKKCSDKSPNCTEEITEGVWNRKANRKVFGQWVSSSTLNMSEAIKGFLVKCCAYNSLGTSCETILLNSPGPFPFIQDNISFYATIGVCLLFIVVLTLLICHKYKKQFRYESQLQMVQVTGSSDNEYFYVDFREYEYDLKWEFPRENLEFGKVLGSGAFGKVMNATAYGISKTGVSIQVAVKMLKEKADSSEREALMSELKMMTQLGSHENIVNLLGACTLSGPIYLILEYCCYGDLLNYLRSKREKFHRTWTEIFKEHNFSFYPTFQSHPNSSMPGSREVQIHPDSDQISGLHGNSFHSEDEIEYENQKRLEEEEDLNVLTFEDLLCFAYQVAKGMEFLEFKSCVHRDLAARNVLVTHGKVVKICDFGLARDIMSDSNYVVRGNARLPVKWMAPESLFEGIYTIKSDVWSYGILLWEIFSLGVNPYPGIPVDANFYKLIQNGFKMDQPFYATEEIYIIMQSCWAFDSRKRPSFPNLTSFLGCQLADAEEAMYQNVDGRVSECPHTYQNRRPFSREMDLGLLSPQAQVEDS
The assay is described as follows: BA/F3-FLT3-ITD + F691L cell proliferation assay (CellTiter-Glo). The settings on record: BaF3 FLT3 ITD/F691L cells; read-out: Cell Activity (IC50 μM) BaF3_FLT3_ITD/F691L. It counts as cell-based, murine. The source says: The FLT3 inhibitors may also be assessed using leukemia cell lines that express endogenous FLT3-ITD or cells that are engineered to express wild-type or mutant FLT3. The cells expressing endogenous FLT3 are dependent upon FLT3 catalytic activity for growth. For the engineered cells, murine BA/F3 cells were transfected with full-length FLT3 (either wild-type, or containing the ITD, D835Y, or F691L mutations, as noted). The parental BA/F3 cells are dependent upon Interleukin-3 (IL-3) for survival, and introduction of the FLT3 constructs renders these cells dependent upon FLT3 kinase activity when cultured in the absence of IL-3. Engineered BA/F3 cell growth assays can be performed in either the absence or presence of IL-3, to assess the compound inhibition of FLT3 or to detect the presence of off-target activity, respectively. Inhibitors of FLT3 kinase activity reduce or eliminate the FLT3 oncogenic signaling, resulting in reduced cell proliferation. This inhibition is measured as a function of compound concentration to assess IC50 values.
Cells were seeded at 1×10^4 cells per well of a 96 well cell culture plate in 50 μl of cell culture medium. Compounds were dissolved in DMSO, typically at a concentration of 5 mM and were serially diluted 1:3 for a total of eight points and added to the cells to final concentrations of 10, 3.3, 1.1, 0.37, 0.12, 0.041, 0.014 and 0.0046 μM in 100 μl cell culture medium (final concentration 0.2% DMSO). […] The cells were incubated at 37° C., 5% CO2 for three days. CellTiter-Glo Buffer (Promega Cell Viability Assay catalog #G7573) and substrate were equilibrated to room temperature, and enzyme/substrate Recombinant Firefly Luciferase/Beetle Luciferin was reconstituted. The cell plates were equilibrated to room temperature for 30 minutes, then lysed by addition of an equivalent volume of the Celltiter-Glo Reagent. The plate was mixed for 10 minutes on a plate shaker to lyse the cells. The plates were read on a Tecan M1000 using Luminescence protocol modified to read 0.1 s per well. The luminescence reading assesses the ATP content, which correlates directly with cell number such that the reading as a function of compound concentration was used to determine the IC50 value.
(Cellular ATP, detected with luciferase, serves as a proxy for viable cell number.)
As to `COc1ncc(-c2cnc3[nH]cc(-c4ccc5ncn(C6CCCNC6)c5c4)c3n2)cn1` (stereo not shown) [P-264, 2-(2-methoxypyrimidin-5-yl)-7-[3-(3-piperidyl)benzimidazol-5-yl]-5H-pyrrolo[2,3-b]pyrazine], the GI50 lay in the range of 0.0001 to 1 µM.

As for `O=S1(=O)CCCN1c1cccc(-c2cnc3[nH]cc(-c4ccc5ncn(C6CCCNC6)c5c4)c3n2)c1` (stereo not shown) [P-273, 2-[3-[7-[3-(3-piperidyl)benzimidazol-5-yl]-5H-pyrrolo[2,3-b]pyrazin-2-yl]phenyl]-1,2-thiazolidine 1,1-dioxide], the GI50 lay within 0.0001 to 1 µM.

`COc1cc(C(=O)Nc2cnc3[nH]cc(-c4ccc5ncn(C6CCCNC6)c5c4)c3c2)ccn1` (stereo not shown) [P-247, 2-methoxy-N-[3-[3-(3-piperidyl)benzimidazol-5-yl]-1H-pyrrolo[2,3-b]pyridin-5-yl]pyridine-4-carboxamide]: the GI50 was 0.0001 to 1 µM.

As to `N#Cc1cccc(NC(=O)c2cnc3[nH]cc(-c4ccc5ncn(C6CCCNC6)c5c4)c3c2)c1` (stereo not shown) [P-219, N-(3-cyanophenyl)-3-(1-(piperidin-3-yl)-1H-benzo[d]imidazol-6-yl)-1H-pyrrolo[2,3-b]pyridine-5-carboxamide], the GI50 lay within 1 to 10 µM.

Consider `N#Cc1cc(-c2cnc3[nH]cc(-c4ccc5ncn(C6CCCNC6)c5c4)c3n2)ccc1F` (stereo not shown) [P-238, 2-fluoro-5-[7-[3-(3-piperidyl)benzimidazol-5-yl]-5H-pyrrolo[2,3-b]pyrazin-2-yl]benzonitrile], for which the GI50 fell in the range of 0.0001 to 1 µM.

`CC(C)n1cnc2ccc(-c3c[nH]c4ncc(-c5cnn(C(F)F)c5)cc34)cc21` [P-267, 5-[1-(difluoromethyl)pyrazol-4-yl]-3-(3-isopropylbenzimidazol-5-yl)-1H-pyrrolo[2,3-b]pyridine]: the GI50 was in the range of 0.0001 to 1 µM.

For the compound `COc1cc(-c2cnc3[nH]cc(-c4ccc5ncn(C(C)C)c5c4)c3n2)ccn1` [P-113, 7-(3-isopropylbenzimidazol-5-yl)-2-(2-methoxy-4-pyridyl)-5H-pyrrolo[2,3-b]pyrazine], the GI50 was in the range of 0.0001 to 1 µM.

For the compound `CC(C)(C)n1cnc2ccc(-c3c[nH]c4ncc(-c5cccc(N6CCOCC6)c5)nc34)cc21` [P-226, 4-[3-[7-(3-tert-butylbenzimidazol-5-yl)-5H-pyrrolo[2,3-b]pyrazin-2-yl]phenyl]morpholine], the GI50 lay in the range of 0.0001 to 1 µM.

On to `COc1cc(-c2cnc3[nH]cc(-c4ccc5ncn(C6CCCNC6)c5c4)c3n2)cc(OC)n1` (stereo not shown) [P-195, 2-(2,6-dimethoxy-4-pyridyl)-7-[3-(3-piperidyl)benzimidazol-5-yl]-5H-pyrrolo[2,3-b]pyrazine], for which the GI50 lay within 0.0001 to 1 µM.

Take `O=S(=O)(c1cccc(-c2cnc3[nH]cc(-c4ccc5ncn(C6CCCNC6)c5c4)c3n2)c1)N1CCCC1` (stereo not shown) [P-237, 7-[3-(3-piperidyl)benzimidazol-5-yl]-2-(3-pyrrolidin-1-ylsulfonylphenyl)-5H-pyrrolo[2,3-b]pyrazine]: the GI50 lay in the range of 0.0001 to 1 µM.

As to `CC(C)(C)n1cnc2ccc(-c3c[nH]c4ncc(-c5cnc(N6CCOCC6)nc5)cc34)cc21` [P-266, 4-[5-[3-(3-tert-butylbenzimidazol-5-yl)-1H-pyrrolo[2,3-b]pyridin-5-yl]pyrimidin-2-yl]morpholine], the GI50 fell in the range of 0.0001 to 1 µM.

In the case of `COc1cc(C#Cc2cnc3[nH]cc(-c4ccc5ncn(C6CCCNC6)c5c4)c3c2)ccn1` (stereo not shown) [P-241, 5-[2-(2-methoxy-4-pyridyl)ethynyl]-3-[3-(3-piperidyl)benzimidazol-5-yl]-1H-pyrrolo[2,3-b]pyridine], the GI50 is 0.0001 to 1 µM.

For `c1cc(-c2cnc3[nH]cc(-c4ccc5ncn(C6CCCNC6)c5c4)c3c2)cc(N2CCOCC2)n1` (stereo not shown) [P-223, 4-[4-[3-[3-(3-piperidyl)benzimidazol-5-yl]-1H-pyrrolo[2,3-b]pyridin-5-yl]-2-pyridyl]morpholine], the GI50 fell in the range of 0.0001 to 1 µM.

In the case of `COc1cnc2[nH]cc(-c3ccc4ncn(-c5cccc(Cl)c5)c4c3)c2c1` [P-105, 1-(3-chlorophenyl)-6-(5-methoxy-1H-pyrrolo[2,3-b]pyridin-3-yl)benzimidazole], the GI50 was in the range of 0.0001 to 1 µM.

Consider `CC(C)(C)n1cnc2ccc(-c3c[nH]c4ncc(-c5cnn(C(F)F)c5)cc34)cc21` [P-251, 1-tert-butyl-6-[5-[1-(difluoromethyl)pyrazol-4-yl]-1H-pyrrolo[2,3-b]pyridin-3-yl]benzimidazole], for which the GI50 was 0.0001 to 1 µM.

On to `CCCS(=O)(=O)Nc1cccc(-c2cnc3[nH]cc(-c4ccc5ncn(C(C)(C)C)c5c4)c3n2)c1` [P-225, N-[3-[7-(3-tert-butylbenzimidazol-5-yl)-5H-pyrrolo[2,3-b]pyrazin-2-yl]phenyl]propane-1-sulfonamide], for which the GI50 was 0.0001 to 1 µM.

Take `COc1ncc(-c2cnc3[nH]cc(-c4ccc5ncn(C(C)C)c5c4)c3c2)cn1` [P-269, 1-isopropyl-6-[5-(2-methoxypyrimidin-5-yl)-1H-pyrrolo[2,3-b]pyridin-3-yl]benzimidazole]: the GI50 was in the range of 0.0001 to 1 µM.

Turning to `N#Cc1cc(-c2cnc3[nH]cc(-c4ccc5ncn(C6CCCNC6)c5c4)c3c2)ccc1F` (stereo not shown) [P-208, 2-fluoro-5-[3-[3-(3-piperidyl)benzimidazol-5-yl]-1H-pyrrolo[2,3-b]pyridin-5-yl]benzonitrile], the GI50 was in the range of 0.0001 to 1 µM.

For the compound `CC(C)n1cnc2ccc(-c3c[nH]c4ncc(-c5cnn(CC(F)(F)F)c5)cc34)cc21` [P-268, 1-isopropyl-6-[5-[1-(2,2,2-trifluoroethyl)pyrazol-4-yl]-1H-pyrrolo[2,3-b]pyridin-3-yl]benzimidazole], the GI50 lay within 0.0001 to 1 µM.

Take `COc1cc(C#Cc2cnc3[nH]cc(-c4ccc5ncn(C(C)(C)C)c5c4)c3c2)ccn1` [P-240, 1-(tert-butyl)-6-(5-((2-methoxypyridin-4-yl)ethynyl)-1H-pyrrolo[2,3-b]pyridin-3-yl)-1H-benzo[d]imidazole]: the GI50 lay in the range of 0.0001 to 1 µM.

`COc1ncc(-c2cnc3[nH]cc(-c4ccc5ncn(C(C)(C)C)c5c4)c3n2)cn1` [P-263, 7-(3-tert-butylbenzimidazol-5-yl)-2-(2-methoxypyrimidin-5-yl)-5H-pyrrolo[2,3-b]pyrazine]: the GI50 fell in the range of 0.0001 to 1 µM.

Regarding `C#Cc1cnc2[nH]cc(-c3ccc4ncn(C(C)(C)C)c4c3)c2n1` [P-259, 7-(3-tert-butylbenzimidazol-5-yl)-2-ethynyl-5H-pyrrolo[2,3-b]pyrazine], the GI50 fell in the range of 0.0001 to 1 µM.

`CC(C)(CO)n1cnc2ccc(-c3c[nH]c4ncc(-c5cccc(NS(C)(=O)=O)c5)nc34)cc21` [P-115, N-[3-[7-[3-(2-hydroxy-1,1-dimethyl-ethyl)benzimidazol-5-yl]-5H-pyrrolo[2,3-b]pyrazin-2-yl]phenyl]methanesulfonamide]: the GI50 lay in the range of 0.0001 to 1 µM.

Consider `O=S1(=O)CCCCN1c1cccc(-c2cnc3[nH]cc(-c4ccc5ncn(C6CCCNC6)c5c4)c3n2)c1` (stereo not shown) [P-253, 2-[3-[7-[3-(3-piperidyl)benzimidazol-5-yl]-5H-pyrrolo[2,3-b]pyrazin-2-yl]phenyl]thiazinane 1,1-dioxide], for which the GI50 is 0.0001 to 1 µM.

On to `CC(C)(C)n1cnc2ccc(-c3c[nH]c4ncc(-c5cccc(N6CCCCS6(=O)=O)c5)cc34)cc21` [P-221, 2-[3-[3-(3-tert-butylbenzimidazol-5-yl)-1H-pyrrolo[2,3-b]pyridin-5-yl]phenyl]thiazinane 1,1-dioxide], for which the GI50 lay in the range of 0.0001 to 1 µM.

(Values after patent US10160755B2 (Plexxikon Inc., priority 2015, dated 2018).)
